Laboratory results taken from patent publication US20250275953A1, “VODOBATINIB FOR REDUCING PROGRESSION OF PARKINSON'S DISEASE” (Sun Pharma Advanced Research Company Ltd., priority 2022, published 2025).
Where two headings read alike, the source gives them in different places.

Assay: Plasma pharmacokinetics, 7 once-daily oral doses, healthy volunteers
Format: in vivo, human
Conditions: for Cmax / Tmax / AUC(0-t): male, human, plasma, oral
Method: After 28 days of screening, the subjects were studied in sequential cohorts of 6 subjects each. The study was conducted for 17 days. […] After the dose, subjects continued to fast for additional 4 hours, water was allowed ad libitum with the exception of 1 hour prior and 1-hour post dose.
The plasma and CSF samples were analyzed, by validated LC/MS-MS methods. PK analysis was conducted based on PK/PP Population: Cmax, AUC0-t, AUC0-24, AUC0-∞, Tmax, Cavg, CL/F, Cmin, t1/2, Kel, Vd (V/F; Vd/F), and Vss/F. Model-independent plasma PK parameters (Cmax, Tmax, t1/2, AUC0-t, AUC0-24, AUC0-∞, Cavg, CL/F, Vss/F, Vd/F), after the first dose (Day 1) and last dose (Day 7), Cmin on Days 2-7) was listed by subject and summarized by study cohort. In addition to the descriptive statistics listed above, geometric means was reported for the pivotal PK endpoints (CL/F, Vss/F, Vd/F, Cmin, Cavg, AUC0-t, AUC0-24, AUC0-∞, and Cmax). For CSF, PK parameters (Cmax, Tmax, t1/2, AUC0-t, AUC0-24, Cmin, Cavg, CL/F, Vss/F) was listed by subject and summarized by cohort. Ratios of CSF: plasma concentration at each time point was listed by subject and summarized by study cohort.
Forty-one healthy adult male volunteers aged 18 to 45 with body mass indexes (BMI)≥18 to ≤30 Kg/m^2 and total body weight >50 kg (110 lb) were screened in order to enroll 19 subjects with an average age of 34.2 years (range 21.5-45.6 years) into this study Six participants were randomly assigned to the 48 and 192 mg cohorts, and seven participants were assigned to the 384 mg cohort. After an overnight fast, participants received once daily doses of vodobatinib as capsules for 7 days. Serial PK blood samples to measure vodobatinib plasma concentrations were collected at pre-dose and at 0.25, 0.5, 1, 1.5, 2, 2.5, 3, 4, 6, 8, 12, 16 and 24 h post-dose after the first dose on Day 1 and the last dose on day 7. Additional PK samples prior to the morning doses were taken on Days 3-6. On the morning of Day 7, prior to dosing, an indwelling intrathecal catheter was inserted in the lumbar region (L3-L5). Serial CSF samples were collected through the catheter connected via peristaltic pump to a fraction collector. At each designated CSF collection time point, 8 mL of CSF was collected at a flow rate of 0.5 mL/min over a 16-min period at pre-dose, and 0.5, 1.0, 1.5, 2, 2.5, 3, 4, 6, 8, 12 and 24 h post-dose. The first 2 mL of CSF was discarded, and the remaining 6 mL was used for the vodobatinib assay. The occurrence of treatment-emergent adverse events (TEAEs) and serious AEs (SAEs) reported through the completion of study were collected.

[1] = 48 mg, Day 7, plasma, healthy volunteers
[2] = 192 mg, Day 1, plasma, healthy volunteers
[3] = 192 mg, Day 7, plasma, healthy volunteers
[4] = 384 mg, Day 1, plasma, healthy volunteers
[5] = 384 mg, Day 7, plasma, healthy volunteers

Cc1ccc(C(=O)NNC(=O)c2c(C)cccc2Cl)cc1C#Cc1cnc2ccccc2c1 [N′-(2-chloro-6-methylbenzoyl)-4-methyl-3-[2-(3-quinolyl)ethynyl]-benzohydrazide]
AUC0-24 GM (48 mg, Day 1, plasma, healthy volunteers): 8691.6 ng·h/mL | AUC0-24 GM [1]: 10346.9 ng·h/mL | Cmax GM [1]: 1241.4 ng/mL | AUC0-24 GM [2]: 33425.8 ng·h/mL | Cmax GM [2]: 3550.7 ng/mL | AUC0-24 GM [3]: 39138.2 ng·h/mL | Cmax GM [3]: 5020.9 ng/mL | AUC0-24 GM [4]: 35536.5 ng·h/mL | Cmax GM [4]: 5387.1 ng/mL | AUC0-24 GM [5]: 42124.5 ng·h/mL | Cmax GM [5]: 6648.7 ng/mL | time within which peak plasma concentrations (Cmax) achieved (Day 1, across 48-384 mg cohorts): 2.8 to 4.0 h | Cmax (48 mg, Day 1, plasma, Healthy Subjects, Table 10, read-out: Cmax Mean): 1380 ng/mL | Tmax (48 mg, Day 1, plasma, Healthy Subjects, Table 10, read-out: Tmax median): 2.8 h | AUC(0-t) (48 mg, Day 1, plasma, Healthy Subjects, read-out: AUC0-24 Mean): 8870 ng·h/mL | AUC(0-t) (48 mg, Day 1, plasma, healthy volunteers, read-out: AUC0-24 AM): 8870 ng·h/mL | AUC(0-t) (48 mg, Day 1, plasma, healthy volunteers, read-out: AUC0-24 GM): 8690 ng·h/mL | AUC(0-t) (48 mg, Day 1, plasma, healthy volunteers, read-out: AUC0-24 Median): 8880 ng·h/mL | AUC(0-t) (48 mg, Day 1, plasma, healthy volunteers, read-out: AUC0-24 Min, Max): 5850 to 10800 ng·h/mL | Cmax (48 mg, Day 1, plasma, healthy volunteers, read-out: Cmax AM): 1380 ng/mL | Cmax (48 mg, Day 1, plasma, healthy volunteers, read-out: Cmax GM): 1330 ng/mL | Cmax (48 mg, Day 1, plasma, healthy volunteers, read-out: Cmax Median): 1220 ng/mL | Cmax (48 mg, Day 1, plasma, healthy volunteers, read-out: Cmax Min, Max): 1010 to 2000 ng/mL | Tmax (48 mg, Day 1, plasma, healthy volunteers, read-out: Tmax Median): 2.8 h | Tmax (48 mg, Day 1, plasma, healthy volunteers, read-out: Tmax Min, Max): 1.5 to 4 h | Cmax (48 mg, Day 7, plasma, Healthy Subjects, Table 10, read-out: Cmax Mean): 1400 ng/mL | Tmax (48 mg, Day 7, plasma, Healthy Subjects, Table 10, read-out: Tmax median (range)): 4 h | AUC(0-t) (48 mg, Day 7, plasma, Healthy Subjects, read-out: AUC0-24 Mean): 12900 ng·h/mL | AUC(0-t) (48 mg, Day 7, plasma, healthy volunteers, read-out: AUC0-24 AM): 12900 ng·h/mL | AUC(0-t) (48 mg, Day 7, plasma, healthy volunteers, read-out: AUC0-24 GM): 10300 ng·h/mL | AUC(0-t) (48 mg, Day 7, plasma, healthy volunteers, read-out: AUC0-24 Median): 11000 ng·h/mL | AUC(0-t) (48 mg, Day 7, plasma, healthy volunteers, read-out: AUC0-24 Min, Max): 2970 to 29000 ng·h/mL | Cmax (48 mg, Day 7, plasma, healthy volunteers, read-out: Cmax AM): 1400 ng/mL | Cmax (48 mg, Day 7, plasma, healthy volunteers, read-out: Cmax GM): 1240 ng/mL | Cmax (48 mg, Day 7, plasma, healthy volunteers, read-out: Cmax Median): 1340 ng/mL | Cmax (48 mg, Day 7, plasma, healthy volunteers, read-out: Cmax Min, Max): 421 to 2380 ng/mL | Tmax (48 mg, Day 7, plasma, healthy volunteers, read-out: Tmax Median): 4 h | Tmax (48 mg, Day 7, plasma, healthy volunteers, read-out: Tmax Min, Max): 1.5 to 12 h | Cmax (192 mg, Day 1, plasma, Healthy Subjects, Table 10, read-out: Cmax Mean): 3780 ng/mL | Tmax (192 mg, Day 1, plasma, Healthy Subjects, Table 10, read-out: Tmax median): 3.5 h | AUC(0-t) (192 mg, Day 1, plasma, Healthy Subjects, read-out: AUC0-24 Mean): 34500 ng·h/mL | AUC(0-t) (192 mg, Day 1, plasma, healthy volunteers, read-out: AUC0-24 AM): 34500 ng·h/mL | AUC(0-t) (192 mg, Day 1, plasma, healthy volunteers, read-out: AUC0-24 GM): 33400 ng·h/mL | AUC(0-t) (192 mg, Day 1, plasma, healthy volunteers, read-out: AUC0-24 Median): 34700 ng·h/mL | AUC(0-t) (192 mg, Day 1, plasma, healthy volunteers, read-out: AUC0-24 Min, Max): 22400 to 45600 ng·h/mL | Cmax (192 mg, Day 1, plasma, healthy volunteers, read-out: Cmax AM): 3780 ng/mL | Cmax (192 mg, Day 1, plasma, healthy volunteers, read-out: Cmax GM): 3550 ng/mL | Cmax (192 mg, Day 1, plasma, healthy volunteers, read-out: Cmax Median): 3180 ng/mL | Cmax (192 mg, Day 1, plasma, healthy volunteers, read-out: Cmax Min, Max): 2740 to 7190 ng/mL | Tmax (192 mg, Day 1, plasma, healthy volunteers, read-out: Tmax Median): 3.5 h | Tmax (192 mg, Day 1, plasma, healthy volunteers, read-out: Tmax Min, Max): 1.62 to 4 h | Cmax (192 mg, Day 7, plasma, Healthy Subjects, Table 10, read-out: Cmax Mean): 5380 ng/mL | Tmax (192 mg, Day 7, plasma, Healthy Subjects, Table 10, read-out: Tmax median (range)): 4 h | AUC(0-t) (192 mg, Day 7, plasma, Healthy Subjects, read-out: AUC0-24 Mean): 44100 ng·h/mL | AUC(0-t) (192 mg, Day 7, plasma, healthy volunteers, read-out: AUC0-24 AM): 44100 ng·h/mL | AUC(0-t) (192 mg, Day 7, plasma, healthy volunteers, read-out: AUC0-24 GM): 39100 ng·h/mL | AUC(0-t) (192 mg, Day 7, plasma, healthy volunteers, read-out: AUC0-24 Median): 40100 ng·h/mL | AUC(0-t) (192 mg, Day 7, plasma, healthy volunteers, read-out: AUC0-24 Min, Max): 20700 to 91500 ng·h/mL | Cmax (192 mg, Day 7, plasma, healthy volunteers, read-out: Cmax AM): 5380 ng/mL | Cmax (192 mg, Day 7, plasma, healthy volunteers, read-out: Cmax GM): 5020 ng/mL | Cmax (192 mg, Day 7, plasma, healthy volunteers, read-out: Cmax Median): 4690 ng/mL | Cmax (192 mg, Day 7, plasma, healthy volunteers, read-out: Cmax Min, Max): 3120 to 10100 ng/mL | Tmax (192 mg, Day 7, plasma, healthy volunteers, read-out: Tmax Median): 4 h | Tmax (192 mg, Day 7, plasma, healthy volunteers, read-out: Tmax Min, Max): 4.01 to 4.08 h | Cmax (384 mg, Day 1, plasma, Healthy Subjects, Table 10, read-out: Cmax Mean): 6630 ng/mL | Tmax (384 mg, Day 1, plasma, Healthy Subjects, Table 10, read-out: Tmax median): 4 h | AUC(0-t) (384 mg, Day 1, plasma, Healthy Subjects, read-out: AUC0-24 Mean): 47600 ng·h/mL | AUC(0-t) (384 mg, Day 1, plasma, healthy volunteers, read-out: AUC0-24 AM): 47600 ng·h/mL | AUC(0-t) (384 mg, Day 1, plasma, healthy volunteers, read-out: AUC0-24 GM): 35500 ng·h/mL | AUC(0-t) (384 mg, Day 1, plasma, healthy volunteers, read-out: AUC0-24 Median): 41900 ng·h/mL | AUC(0-t) (384 mg, Day 1, plasma, healthy volunteers, read-out: AUC0-24 Min, Max): 6640 to 105000 ng·h/mL | Cmax (384 mg, Day 1, plasma, healthy volunteers, read-out: Cmax AM): 6630 ng/mL | Cmax (384 mg, Day 1, plasma, healthy volunteers, read-out: Cmax GM): 5390 ng/mL | Cmax (384 mg, Day 1, plasma, healthy volunteers, read-out: Cmax Median): 5580 ng/mL | Cmax (384 mg, Day 1, plasma, healthy volunteers, read-out: Cmax Min, Max): 1490 to 13700 ng/mL | Tmax (384 mg, Day 1, plasma, healthy volunteers, read-out: Tmax Median): 4 h | Tmax (384 mg, Day 1, plasma, healthy volunteers, read-out: Tmax Min, Max): 1.5 to 6 h | Cmax (384 mg, Day 7, plasma, Healthy Subjects, Table 10, read-out: Cmax Mean): 7850 ng/mL | Tmax (384 mg, Day 7, plasma, Healthy Subjects, Table 10, read-out: Tmax median (range)): 3.5 h | AUC(0-t) (384 mg, Day 7, plasma, Healthy Subjects, read-out: AUC0-24 Mean): 54900 ng·h/mL | AUC(0-t) (384 mg, Day 7, plasma, healthy volunteers, read-out: AUC0-24 AM): 54900 ng·h/mL | AUC(0-t) (384 mg, Day 7, plasma, healthy volunteers, read-out: AUC0-24 GM): 42100 ng·h/mL | AUC(0-t) (384 mg, Day 7, plasma, healthy volunteers, read-out: AUC0-24 Median): 50000 ng·h/mL | AUC(0-t) (384 mg, Day 7, plasma, healthy volunteers, read-out: AUC0-24 Min, Max): 11500 to 125000 ng·h/mL | Cmax (384 mg, Day 7, plasma, healthy volunteers, read-out: Cmax AM): 7880 ng/mL | Cmax (384 mg, Day 7, plasma, healthy volunteers, read-out: Cmax GM): 6650 ng/mL | Cmax (384 mg, Day 7, plasma, healthy volunteers, read-out: Cmax Median): 6500 ng/mL | Cmax (384 mg, Day 7, plasma, healthy volunteers, read-out: Cmax Min, Max): 2870 to 17900 ng/mL | Tmax (384 mg, Day 7, plasma, healthy volunteers, read-out: Tmax Median): 3.5 h | Tmax (384 mg, Day 7, plasma, healthy volunteers, read-out: Tmax Min, Max): 2.52 to 4.03 h
